According to patent EP0326331B1, “Substituted quinolines and cinnolines” (Dow AgroSciences LLC, priority 1988, dated 1989):

What was measured:
Assay type in all cases: in vivo
[1] = system: Venturia inaequalis (apple scab); assay: Test 1 greenhouse foliar spray screen, apple scab on apple seedling; conditions: disease control rating, foliar spray on apple seedling, 400 ppm (+++ at 100 ppm)
[2] = system: Erysiphe graminis tritici (powdery mildew); assay: Test 1 greenhouse foliar spray screen, powdery mildew on wheat; conditions: disease control rating, foliar spray on wheat, 400 ppm (+++ at 100 ppm)
[3] = system: melon aphids (Aphis gossypii Glover); assay: Mite/insect screen, MA; conditions: Aphis gossypii, percent mortality, SAW, read-out: MA RESULTS %; for mortality at 200 ppm: SM & MA RATE 200 PPM; for mortality at 400 ppm: SM & MA RATE 400 PPM
Outline: (§1)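 Activity is expressed as percent mortality at the indicated spray concentrations. Plants are sprayed to runoff on upper and lower leaf surfaces with aqueous dilutions of an acetone/alcohol emulsifiable formulation, then dried for one hour.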

[4] = system: Pyricularia oryzae (rice blast); assay: whole plant or invertebrate; conditions: disease control rating, foliar spray on rice, 400 ppm (+++ at 100 ppm)
[5] = system: Puccinia recondita tritici (leaf rust); assay: Test 1 greenhouse foliar spray screen, leaf rust on wheat; conditions: disease control rating, foliar spray on wheat, 400 ppm (+++ at 100 ppm)
[6] = system: Botrytis cinerea (gray mold); assay: Test 1 greenhouse foliar spray screen, gray mold on grape berries; conditions: disease control rating, spray on grape berries, 400 ppm (+++ at 100 ppm)
[7] = system: Twospotted spider mites (Tetranychus urticae Koch); assay: Mite/insect screen, SM; conditions: Tetranychus urticae, percent mortality, SAW, read-out: SM RESULTS %; for mortality at 200 ppm: SM & MA RATE 200 PPM; for mortality at 400 ppm: SM & MA RATE 400 PPM
Outline: as §1

corn rootworm = assay: Mite/insect screen, CRW; conditions: percent mortality, read-out: CRW RESULTS %; for mortality at 12 ppm: CRW RATE 12.00 PPM; for mortality at 24 ppm: CRW RATE 24.00 PPM
Outline: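 Each compound, taken up in an emulsifier-containing acetone/alcohol mixture and diluted in water to the stated concentrations, was assessed for percent kill following standard exposure times.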

[8] = system: southern armyworm (Spodopetra eridania Cramer); assay: Mite/insect screen, SAW; conditions: Spodoptera eridania, percent mortality, SAW, read-out: SAW RESULTS %; for mortality at 200 ppm: SM & MA RATE 200 PPM; for mortality at 400 ppm: SM & MA RATE 400 PPM
Outline: as §1

[9] = system: Cercospora beticola (leaf spot); assay: Test 1 greenhouse foliar spray screen, leaf spot on sugar beet; conditions: disease control rating, foliar spray on sugar beet, 400 ppm (+++ at 100 ppm)
[10] = system: Pseudoperonospora cubensis (downy mildew); assay: Test 1 greenhouse foliar spray screen, downy mildew on squash; conditions: disease control rating, foliar spray on squash, 400 ppm (+++ at 100 ppm)
[11] = system: Septoria tritici (leaf blotch); assay: Test 1 greenhouse foliar spray screen, leaf blotch on wheat; conditions: disease control rating, foliar spray on wheat, 400 ppm (+++ at 100 ppm)

SMILES	APPL SCAB [1]	POWD MDEW [2]	mortality at 200 ppm [3] [%]	mortality at 400 ppm [3] [%]	RICE BLAST [4]	LEAF RUST [5]	GRAY MOLD [6]	mortality at 200 ppm [7] [%]	mortality at 400 ppm [7] [%]	mortality at 12 ppm (corn rootworm) [%]	mortality at 24 ppm (corn rootworm) [%]	mortality at 200 ppm [8] [%]	mortality at 400 ppm [8] [%]	LEAF SPOT [9]	DOWN MDEW [10]	LEAF BLOT [11]
COc1ccc(CCNc2ccnc3cc(C(F)(F)F)ccc23)cc1 [Example 42, N-[2-(4-methoxyphenyl)ethyl]-7-(trifluoromethyl)-4-quinolinamine]	- (0-19% control at 400 ppm)	+++ (90-100% control at 100 ppm)	0	0	+ (20-89% control at 400 ppm)	++ (90-100% control at 400 ppm)	- (0-19% control at 400 ppm)	0	0	0	0	0	0	+++ (90-100% control at 100 ppm)	+++ (90-100% control at 100 ppm)	- (0-19% control at 400 ppm)
COc1cccc(CCNc2ccnc3cc(Cl)ccc23)c1 [Example 43, 7-chloro-N-[2-(3-methoxyphenyl)ethyl]-4-quinolinamine]	- (0-19% control at 400 ppm)	+ (20-89% control at 400 ppm)	0	0	+ (20-89% control at 400 ppm)	- (0-19% control at 400 ppm)	- (0-19% control at 400 ppm)	0	0	0	0	0	0	+++ (90-100% control at 100 ppm)	++ (90-100% control at 400 ppm)	- (0-19% control at 400 ppm)
Clc1ccc(CCNc2ccnc3cc(Cl)ccc23)c(Cl)c1 [Example 44, 7-chloro-N-[2-(2,4-dichlorophenyl)ethyl]-4-quinolinamine]	+ (20-89% control at 400 ppm)	+++ (90-100% control at 100 ppm)	0	0	+ (20-89% control at 400 ppm)	+ (20-89% control at 400 ppm)	- (0-19% control at 400 ppm)	0	0	0	0	0	0	+++ (90-100% control at 100 ppm)	+++ (90-100% control at 100 ppm)	- (0-19% control at 400 ppm)
COc1cc(CCNc2ccnc3cc(Cl)ccc23)cc(OC)c1 [Example 45, 7-chloro-N-[2-(3,5-dimethoxyphenyl)ethyl]-4-quinolinamine]	- (0-19% control at 400 ppm)	+ (20-89% control at 400 ppm)	0	0	++ (90-100% control at 400 ppm)	+ (20-89% control at 400 ppm)	- (0-19% control at 400 ppm)	0	0	0	0	0	0	+++ (90-100% control at 100 ppm)	++ (90-100% control at 400 ppm)	- (0-19% control at 400 ppm)
COc1ccc(CCNc2ccnc3ccc(C)cc23)cc1 [Example 46, N-[2-(4-methoxyphenyl)ethyl]-6-methyl-4-quinolinamine]	+ (20-89% control at 400 ppm)	+ (20-89% control at 400 ppm)	0	0	++ (90-100% control at 400 ppm)	+ (20-89% control at 400 ppm)	- (0-19% control at 400 ppm)	0	0	0	0	0	0	+++ (90-100% control at 100 ppm)	++ (90-100% control at 400 ppm)	+ (20-89% control at 400 ppm)
COc1ccc(CCNc2ccnc3cc(C(F)(F)F)ccc23)cc1OC [Example 48, N-[2-(3,4-dimethoxyphenyl)ethyl]-7-(trifluoromethyl)-4-quinolinamine]	- (0-19% control at 400 ppm)	+ (20-89% control at 400 ppm)	0	0	+ (20-89% control at 400 ppm)	+ (20-89% control at 400 ppm)	- (0-19% control at 400 ppm)	0	0	0	0	0	0	+ (20-89% control at 400 ppm)	++ (90-100% control at 400 ppm)	- (0-19% control at 400 ppm)
Cc1ccc(CCNc2ccnc3cc(Cl)ccc23)cc1 [Example 50, 7-chloro-N-[2-(4-methylphenyl)ethyl]-4-quinolinamine]	- (0-19% control at 400 ppm)	+++ (90-100% control at 100 ppm)	0	0	- (0-19% control at 400 ppm)	++ (90-100% control at 400 ppm)	- (0-19% control at 400 ppm)	0	0	0	0	0	0	- (0-19% control at 400 ppm)	+++ (90-100% control at 100 ppm)	- (0-19% control at 400 ppm)
Fc1ccc(CCNc2ccnc3c(Cl)cccc23)cc1 [Example 51, 8-chloro-N-[2-(4-fluorophenyl)ethyl]-4-quinolinamine]	- (0-19% control at 400 ppm)	- (0-19% control at 400 ppm)	0	0	+ (20-89% control at 400 ppm)	+ (20-89% control at 400 ppm)	- (0-19% control at 400 ppm)	0	0	0	0	0	20	+++ (90-100% control at 100 ppm)	+++ (90-100% control at 100 ppm)	- (0-19% control at 400 ppm)
FC(F)(F)c1cccc2c(NCCc3ccc(Cl)cc3Cl)ccnc12 [Example 52, N-[2-(2,4-dichlorophenyl)ethyl]-8-(trifluoromethyl)-4-quinolinamine]	- (0-19% control at 400 ppm)	- (0-19% control at 400 ppm)	0	0	+ (20-89% control at 400 ppm)	+ (20-89% control at 400 ppm)	- (0-19% control at 400 ppm)	0	0	0	0	0	0	+ (20-89% control at 400 ppm)	+++ (90-100% control at 100 ppm)	+++ (90-100% control at 100 ppm)
